# Reference: ChEMBL document CHEMBL1157539, “Thousands of chemical starting points for antimalarial lead identification” (Nature, 2010)
# System: Plasmodium falciparum
# Experiment: GSK_TCMDC: Inhibition of Plasmodium falciparum 3D7 in whole erythrocytes, using parasite LDH activity as an index of growth.
# Format: functional, organism-based
# Details: not given
row,SMILES,XC50 [nM]
1,O=C(C=Cc1ccc(F)c(Br)c1)NC1CCC(CN2CCC(c3c[nH]c4ccccc34)CC2)CC1 (stereo unspecified),842

# Same assay, conditions: Plasmodium falciparum, 3D7
row,SMILES,XC50 [nM]
1,Nc1nc(N)c2c(ccc3c2ncn3Cc2ccccc2)n1,93.4
2,O=C(/C=C/C=C/c1ccccc1)NC1CCC(CN2CCC(c3c[nH]c4ccccc34)CC2)CC1 (stereo unspecified),868
3,Cc1ccc(C(=O)Cn2nc(-c3ccc(C)c(S(=O)(=O)N4CCCC4)c3)ccc2=O)cc1,513
4,O=C(Nc1ccc(N2CCN(Cc3ccccc3Cl)CC2)cc1)c1ccc([N+](=O)[O-])o1,975
5,CC(CN(C)C)C(=O)Nc1cccc(-c2cccc(-c3nc4cc(F)ccc4[nH]3)c2)c1 (stereo unspecified),826
6,CCOc1ccc2[nH]c(C)cc(=NN=Cc3cccc(C)n3)c2c1,754
7,CCN(CC)c1ccc(C=CC(=O)NCCN2CCC(N(C)C3CCCCC3C)CC2)cc1 (stereo unspecified),965
8,CC(C)c1ccc(C=CC(=O)N2CCC(CCN3CCC(c4c[nH]c5ccccc45)CC3)CC2)cc1,1260
9,O=C(/C=C/c1ccc(Cl)c(Cl)c1)NCCCCN1CCCN(C(=O)Nc2cc(Cl)cc(Cl)c2)CC1,949
10,Cc1cc(NC(=O)Nc2cccc(N(C)C)c2)c2ccccc2n1,201
11,CN(C)Cc1ccc(CN2CCN(CCOc3ccc(-c4ccc(Cl)cc4)cc3)CC2)o1,1020
12,CCn1c(Sc2ccc(C#N)c([N+](=O)[O-])c2)nnc1-c1ccc(Cl)cc1,552
13,COc1ccc(F)cc1-c1ccc(C(=O)N2CCCN(c3ccc(C(F)(F)F)cn3)CC2)cc1,157
14,Cc1ccccc1C1CCN(C2CCC(NC(=O)/C=C/c3ccc(C(F)(F)F)cc3F)CC2)CC1 (stereo unspecified),902
15,CCOc1cc(C(C)C)ccc1C1CCN(CCCCNC(=O)c2ccc(NC(=O)c3ccc(Cl)cc3)cc2)CC1,813
16,COc1ccc(-c2ccc(NC(=O)c3ccc(C#N)cc3)cc2)cc1CN1CCNCC1,505
17,CN(C)CC(=O)N(Cc1ccc(Cl)c(Cl)c1)Cc1csc(-c2ccc(CNCc3ccccc3)cc2)n1,1050
18,Clc1ccc(CNc2ccnc(NCc3cccnc3N3CCCC3)n2)c(Cl)c1,1170
19,Fc1ccc2[nH]c(-c3cccc(-c4cccc(CNCc5cnn(-c6ccccc6)n5)c4)c3)nc2c1,971
20,Cc1cccc(OC(C)C(=O)Nc2cc(C(F)(F)F)ccc2N2CCOCC2)c1 (stereo unspecified),237
21,Cc1nn(CC(C)C)c2sc(C(=O)N3CCN(S(=O)(=O)c4ccc(C#N)cc4)CC3)cc12,739
22,Cc1cccc2nc(-c3ccc(-c4cccc(NC(=O)Nc5ccc(Cl)cc5)c4)s3)[nH]c12,517
23,OC1CCCN(Cc2cccc(-c3ccc(-c4nc5cc(F)ccc5[nH]4)cc3)c2)C1 (stereo unspecified),780
24,CN(CCN)Cc1ccc(-c2ccc(-c3nc4cc(F)ccc4[nH]3)s2)cc1,1070
25,COC1CCC(C(=O)Nc2ccc(-c3cccc(-c4nc5cc(C(F)(F)F)ccc5[nH]4)c3)cc2)CC1 (stereo unspecified),547

row,SMILES,XC50 [nM]
1,O=C(NC1CCN(Cc2ccccc2)CC1)c1ccc(-c2nc3cc(F)c(F)cc3[nH]2)s1,835
2,COc1cc(OC)nc(C(Sc2ccc(NC(=O)c3cccs3)cc2)c2ccccc2)n1 (stereo unspecified),57.5
3,Cc1ccc2[nH]c(-c3ccccc3N)cc2c1,923
4,CN(C)c1ccc(Br)c(Br)c1,975
5,CCNc1cc(C(=O)NC(Cc2ccccc2)C(O)CNC2CCSCC2)cc(N2CCCC2=O)c1 (stereo unspecified),133
6,O=C(Nc1cc(C(F)(F)F)ccc1Cl)c1ccc(Cn2cc(Br)cn2)cc1,1350
7,CC(=O)NCCNCc1cccc(C(=O)NCc2cccc(C(F)(F)F)c2)c1,1080
8,Nc1nc(N)c2c(n1)CCc1cc(Br)ccc1-2,1130
9,O=C(/C=C/c1ccc(Cl)c(Cl)c1)N1CCN(C(=O)Nc2ccc(F)c(Cl)c2)CC1,724
10,CCCCNC(=N)c1ccc(OCCCCCOc2ccc(C(=N)NCCCC)cc2)cc1,114
11,COCCNCc1ccc(-c2ccc(CNc3ccc4ncccc4c3)cc2)cc1,1040
12,CCCc1cc(C)ccc1OCCCON1C(N)=NC(N)=NC1(C)C,3.2
13,CC(C)c1nc(N2CCN(C(=S)NCc3ccccc3)CC2)c(C#N)c2c1COC(C)(C)C2,142
14,Cc1c(C)n(Cc2ccccc2)c2ncnc(OC3CCN(CC(=O)NCC4CC4)CC3)c12,1120
15,CC(C)C[C@H](NC(=O)c1ccc(F)cc1)C(=O)N[C@H](/C=N/NC(=O)c1ccccc1)CCc1ccccc1,812
16,Cc1cc(O)c(CN2CCN(Cc3cccs3)CC2)cc1C(C)C,716
17,COc1ccc2nccc([C@@H](O)CN3CCC(NCc4ccc5cccc(O)c5n4)CC3)c2c1,1130
18,CS(=O)(=O)NCCCNCc1cccc(-c2ccc(-c3nc4cc(C(F)(F)F)ccc4[nH]3)cc2)c1,996
19,c1ccc(Cn2nnnc2-c2cccc(Nc3ccnc4cc(-c5nccs5)ccc34)c2)cc1,826
20,O=C(Cn1c(=O)oc2ccccc21)N1CCC(n2c(=O)n(CCCN3CCOCC3)c3ccccc32)CC1,774
21,O=C(NCCN1CCCC1)c1ccc(-c2cccc(-c3nc4cc(F)ccc4[nH]3)c2)cc1,774
22,CCc1cc(NC2CCN(C)CC2)nc(Nc2ccc(C)cc2)n1,694
23,O=C(C=Cc1ccc(C(=O)Nc2ccc(C3=NCCN3)cc2)cc1)Nc1ccc(C2=NCCN2)cc1,34.7
24,COc1ccc(CNCc2cccc(-c3ccc(-c4nc5cccc(C)c5[nH]4)s3)c2)cc1,263
25,Cc1cc(Cl)ccc1N(Cc1ccccc1)c1ccnc(Cl)n1,859

row,SMILES,XC50 [nM]
1,CN(C)CCOc1ccc(-c2cc(-c3ccc(Cl)c(O)c3)c(-c3ccncc3)o2)cc1,1450
2,O=C(Nc1ccc(-c2cccc(-c3nc4ccccc4[nH]3)c2)cc1)Nc1ccc(Cl)c(Cl)c1,459
3,CN(C)c1cc(NC(=O)Nc2ccccc2)c2ccccc2n1,405
4,O=c1ccccn1CCCC1CCCCN1 (stereo unspecified),809
5,N=C(N)NCCN(Cc1ccccc1)c1ccccc1,345
6,O=C(Cc1ccccc1)NC1(c2ccccc2)CCN(CCc2c[nH]c3ccc(F)cc23)CC1,878
7,CCOc1ccccc1NC(=O)C(Sc1nc(C)cc(C)c1C#N)c1ccccc1 (stereo unspecified),373
8,O=C(NC(CCCN1CCC2(CC1)OCc1ccccc12)c1ccc(Cl)c(Cl)c1)c1cc(C(F)(F)F)cc(C(F)(F)F)c1 (stereo unspecified),543
9,O=C(Cn1c(CCc2cccc(F)c2F)nc(=O)c2ccccc21)N(CCCN1CCCCC1)Cc1ccc(-c2ccc(C(F)(F)F)cc2)cc1,762
10,OC(c1cc(C(F)(F)F)nc2c(F)cccc12)C1CCCCN1 (stereo unspecified),782
11,Cc1ccc2nc(Cl)c3cc(C(=O)NCCCN4CCCC4)sc3c2c1,1140
12,N#Cc1ccc2c(c1)CN(CCC1CCC(NC(=O)c3cc4cnccc4[nH]3)CC1)CC2 (stereo unspecified),801
13,COc1ccc(NC(=O)/C=C/c2ccccc2Cl)cc1OCCN1CCC(N2CCN(C)CC2)CC1,487
14,Oc1c(C(Nc2nc3ccccc3s2)c2ccc(OC(F)F)cc2)ccc2cccnc12 (stereo unspecified),571
15,Clc1ccc(-c2cc(-c3csc(Nc4ccncc4)n3)on2)cc1,133
16,C[C@@H](N)C#Cc1cc2c(Nc3ccc(OCc4cccc(F)c4)c(Cl)c3)ncnc2s1,1060
17,CCOC(=O)c1cc(=O)c2ccc(OCC#N)cc2o1,1030
18,COc1ccc(-c2cc(NCc3ccc(-n4ccnc4)cc3)nc(Nc3ccccc3)n2)cc1,966
19,CCn1c(-c2nonc2N)nc2c(C#CC(C)(C)O)ncc(OCCNCCc3ccc(OC)cc3)c21,957
20,COc1ccc2nccc([C@@H](O)CN3CCC(NCc4ccc5c(c4)sc(=O)n5C)CC3)c2c1,258
21,Nc1nc(N)c2c(ccc3nn(Cc4cccnc4)cc32)n1,355
22,COc1ccc2nccc(N3CCC(NCc4ccc5c(n4)NC(=O)CS5)CC3)c2n1,860
23,CC(C)(C)c1nn(-c2ccc(Cl)cc2)c2[nH]c(=O)c(CNCc3cccs3)cc12,759
24,COc1ccc2nccc([C@@H](O)CNCCCN(C)CCOc3cc(F)cc(F)c3)c2c1,789
25,Cc1cccc(NC(=O)NCc2ccccc2)n1,944

row,SMILES,XC50 [nM]
1,COc1ccc(NC(=O)[C@H](Cc2ccccc2)Nc2cc(C)nc(NCCc3ccccc3)n2)cc1,1240
2,CCC(CC)n1cc2c(ccc3nc(N)nc(N)c32)n1,81.4
3,COCCOc1nc(N)nc2ncc(Cc3cc(OC)ccc3OC)c(C)c12,426
4,CN(C)CCN(Cc1ccccc1-c1ccc(CNCCc2ccccc2)cc1)C(=O)c1ccccc1,1700
5,CC(C)CC(NC(=O)c1ccc(F)cc1)C(=O)N[C@H](/C=N/N1CCNC1=O)CC(C)C (stereo partly specified),1030
6,Cc1cccc2nc(-c3cccc(-c4ccc(NC(=O)c5c[nH]cn5)cc4)c3)[nH]c12,722
7,COc1ccc(C(=O)C2CC2CN2CC=C(c3c[nH]c4cccc(Br)c34)CC2)cc1 (stereo unspecified),935
8,O=C(Nc1nc2cc(S(=O)(=O)NCc3ccc(Cl)c(Cl)c3)ccc2n1CCCn1ccnc1)c1ccc(Cl)cc1,727
9,CC(C)CNCc1ccc(-c2ccc(CNC3CCN(Cc4ccccc4)CC3)cc2)cc1,558
10,N#Cc1ccc(NC(=O)NC2CCN(CCCCCNC(=O)/C=C/c3ccc(Cl)c(Cl)c3)CC2)cc1,800
11,CC(C)(C)c1ccc(-c2nc3c(ccc4nc(N)nc(N)c43)[nH]2)cc1,158
12,CC(C)(C)NCCN(Cc1ccc(-c2ccc(C(F)(F)F)cc2)cc1)C(=O)Cn1c(CCc2cccc(F)c2F)nc(=O)c2ccccc21,764
13,CS(=O)(=O)Nc1cccc(-c2cnc3[nH]cc(-c4ccc(C(=O)O)cc4)c3c2)c1,857
14,Cc1cc(N/N=C/c2ccccc2[N+](=O)[O-])c2cccc(C)c2n1,548
15,Cc1ccc(C)c2sc(N(CCCn3ccnc3)C(=O)C=Cc3cccs3)nc12,1060
16,CCC1CN(S(=O)(=O)c2ccc3c(c2)NC(=O)CC(=O)N3)c2cc(Cl)ccc2O1 (stereo unspecified),656
17,COc1ccc2nccc([C@@H](O)CN3CCC(NCCc4c[nH]c5ccccc45)CC3)c2c1,210
18,O=C(Nc1cccc(Cl)c1)N(CCCn1ccnc1)Cc1csc(-c2ccc(CNCc3ccccc3)cc2)n1,538
19,NC(=O)c1sc(-n2cnc3ccc(OCC4CCNCC4)cc32)cc1OCc1ccccc1C(F)(F)F,753
20,CCOc1cc(Br)c(C(C)NC(=O)c2cccc(OC)c2)cc1OCC (stereo unspecified),168
21,CN(C)C(=S)N/N=C1/C(=O)Nc2ccccc21,1050
22,COc1ccc2nccc([C@@H](O)CN3CCC(NCCOc4ccccc4C(F)(F)F)CC3)c2c1,753
23,CN1CC=C(c2c[nH]c3ccc(OC(=O)c4ccccc4)cc23)C1,800
24,CC(C)n1ncc2c3c(N)nc(N)nc3ccc21,333
25,O=C(C=Cc1ccc(F)c(Br)c1)NC1CCC(CN2CCC(c3c[nH]c4ccccc34)CC2)CC1 (stereo unspecified),789
